How the values were obtained:
clinical = conditions: female, human, in vivo
Protocol: (§1) In order to evaluate the bioavailability of a peptide drug (calcitonin) administered via particle injection, with and without post administration patch occlusion (relative to subcutaneous injection), the following clinical study was carried out.
(§2) For subcutaneous injections, Miacalcic® calcitonin product was obtained from a commercial source and contained approximately 25 μg (100 IU) of salmon calcitonin (sCT) per ml. For particle injections, the calcitonin composition was formed from sCT at 8% w/w, PVP excipient at 2% w/w, in mannitol. The calcitonin composition was then lyophilized, compressed and then milled to produce particles suitable for use in a particle injection device. […] The 38-53 μm sieve fraction was obtained using a standard mesh screen.
(§3) All particle injections were carried out using a PowderJect® model ND1 needleless syringe fitted with a porous silencer (obtained from PowderJect Technologies, Inc., Fremont, Calif.). […] The devices were operated as described in the '796 patent, using a 60 bar gas source, in order to deliver the sCT particles.
(§4) Occlusive patches were produced by cutting Parafilm® discs which were held in-place by an adhesive dressing. In experimental groups receiving an occlusive dressing, the patch was placed on the skin covering the site of particle administration after sCT delivery and left in-place for the duration of the study (4 hours).
(§5) The overall approach involved measuring pharmacokinetic and pharmacodynamic response parameters following the sCT dose in 24 healthy female subjects. The trial was designed as a single center, open, parallel group trial.
(§6) Blood samples were collected via an indwelling catheter prior to and at 2, 5, 10, 20, 30, 45, 60, 90, 120, 180 and 240 minutes following administration of the calcitonin dose. sCT plasma concentrations were determined by ELISA (PPD Development, VA).

[1] = female, human, in vivo
Protocol: as §1, §2, §3, §4, §5, §6

Tmax (clinical; sc): 20 min
Tmax (clinical; topical or ocular, 300 ug): 5 min
mean bioavailability (BA) relative to the SC injection [1]: 5.1%
Compound: CC(C)C[C@H](NC(=O)[C@H](CCCCN)NC(=O)CNC(=O)[C@H](CC(C)C)NC(=O)[C@@H](NC(=O)[C@@H]1CSSC[C@H](N)C(=O)N[C@@H](CO)C(=O)N[C@@H](CC(N)=O)C(=O)N[C@@H](CC(C)C)C(=O)N[C@@H](CO)C(=O)N[C@@H]([C@@H](C)O)C(=O)N1)C(C)C)C(=O)N[C@@H](CO)C(=O)N[C@@H](CCC(N)=O)C(=O)N[C@@H](CCC(=O)O)C(=O)N[C@@H](CC(C)C)C(=O)N[C@@H](Cc1c[nH]cn1)C(=O)N[C@@H](CCCCN)C(=O)N[C@@H](CC(C)C)C(=O)N[C@@H](CCC(N)=O)C(=O)N[C@H](C(=O)N[C@@H](Cc1ccc(O)cc1)C(=O)N1CCC[C@H]1C(=O)N[C@@H](CCCNC(=N)N)C(=O)N[C@H](C(=O)N[C@@H](CC(N)=O)C(=O)N[C@H](C(=O)NCC(=O)N[C@@H](CO)C(=O)NCC(=O)N[C@H](C(=O)N1CCC[C@H]1C(N)=O)[C@@H](C)O)[C@@H](C)O)[C@@H](C)O)[C@@H](C)O [sCT, salmon calcitonin]

Reference: patent publication US20070196490A1, “Method of enhancing needleless transdermal powered drug delivery” (priority 1999, published 2007)
